# Source: PMC5218480 (PLoS ONE, 2017)
# Test system: MV-4-11 cells
# Assay: Gene expression microarray analysis (Affymetrix PrimeView) and GSEA
# Type: cell-based, human
# Design: RFU PODN (11730768_x_at) / Fold change /veh PODN (11730768_x_at) / RFU LINC00158 (11744669_a_at) / Fold change /veh LINC00158 (11744669_a_at) / RFU DUSP10 (11751237_a_at) / Fold change /veh DUSP10 (11751237_a_at) / RFU ID3 (11757404_x_at) / Fold change /veh ID3 (11757404_x_at) / RFU PLEKHG5 (11737974_s_at) / Fold change /veh PLEKHG5 (11737974_s_at) / RFU LRRC4B (11730491_at) / Fold change /veh LRRC4B (11730491_at) / RFU GIMAP4 (11747438_a_at) / Fold change /veh GIMAP4 (11747438_a_at) / RFU KRT8 (11758183_x_at) / Fold change /veh KRT8 (11758183_x_at) / RFU CNN1 (11734310_a_at) / Fold change /veh CNN1 (11734310_a_at) / RFU VPS37D (11726825_at) / Fold change /veh VPS37D (11726825_at) / RFU C10orf10 (11716522_x_at) / Fold change /veh C10orf10 (11716522_x_at) / RFU KIR2DL2 /// KIR2DL4 /// KIR2DL5A /// KIR2DL5B /// KIR2DS1 /// KIR2DS2 /// KIR2DS3 /// KIR2DS4 /// KIR3DL3 /// KIR3DL3 /// KIR3DS1 (11738374_at) / Fold change /veh KIR2DL2 /// KIR2DL4 /// KIR2DL5A /// KIR2DL5B /// KIR2DS1 /// KIR2DS2 /// KIR2DS3 /// KIR2DS4 /// KIR3DL3 /// KIR3DL3 /// KIR3DS1 (11738374_at) / RFU C1QL1 (11718748_at) / Fold change /veh C1QL1 (11718748_at) / RFU TMPRSS4 (11747572_a_at) / Fold change /veh TMPRSS4 (11747572_a_at) / RFU HAMP (11756126_x_at) / Fold change /veh HAMP (11756126_x_at) / RFU RNFT2 (11725882_a_at) / Fold change /veh RNFT2 (11725882_a_at) / RFU NR4A2 (11747474_a_at) / Fold change /veh NR4A2 (11747474_a_at) / RFU ABCC12 (11746883_a_at) / Fold change /veh ABCC12 (11746883_a_at) / RFU TMEM136 (11760407_x_at) / Fold change /veh TMEM136 (11760407_x_at) / RFU CLDN22 /// WWC2 (11732394_at) / Fold change /veh CLDN22 /// WWC2 (11732394_at) / RFU HLA-DPB1 (11760878_x_at) / Fold change /veh HLA-DPB1 (11760878_x_at) / RFU SPINT1 (11716480_a_at) / Fold change /veh SPINT1 (11716480_a_at) / RFU GAP43 (11754022_s_at) / Fold change /veh GAP43 (11754022_s_at) / RFU A4GNT (11735810_at) / Fold change /veh A4GNT (11735810_at) / RFU PRB3 (11715151_x_at) / Fold change /veh PRB3 (11715151_x_at) / RFU TUBB4B (11761932_at) / Fold change /veh TUBB4B (11761932_at) / RFU CAPN14 (11732068_a_at) / Fold change /veh CAPN14 (11732068_a_at) / RFU TMCC2 (11721928_a_at) / Fold change /veh TMCC2 (11721928_a_at) / RFU IRGQ (11745062_a_at) / Fold change /veh IRGQ (11745062_a_at) / RFU FAM174B (11720279_a_at) / Fold change /veh FAM174B (11720279_a_at) / RFU TMPRSS4 (11748680_a_at) / Fold change /veh TMPRSS4 (11748680_a_at) / RFU FAM212B (11763350_a_at) / Fold change /veh FAM212B (11763350_a_at) / RFU PLEKHG5 (11743358_a_at) / Fold change /veh PLEKHG5 (11743358_a_at) / RFU ZSCAN30 (11745921_a_at) / Fold change /veh ZSCAN30 (11745921_a_at) / RFU CMKLR1 (11741424_a_at) / Fold change /veh CMKLR1 (11741424_a_at) / RFU LOC101060620 /// MAPK8IP1 (11723275_at) / Fold change /veh LOC101060620 /// MAPK8IP1 (11723275_at) / RFU SPTSSB (11747773_x_at) / Fold change /veh SPTSSB (11747773_x_at) / RFU PRSS12 (11739890_at) / Fold change /veh PRSS12 (11739890_at) / RFU BIN1 (11741810_x_at) / Fold change /veh BIN1 (11741810_x_at) / RFU WNT11 (11732464_a_at) / Fold change /veh WNT11 (11732464_a_at) / RFU C10orf10 (11716521_a_at) / Fold change /veh C10orf10 (11716521_a_at) / RFU C5orf56 (11738089_at) / Fold change /veh C5orf56 (11738089_at) / RFU CYB561 (11721691_x_at) / Fold change /veh CYB561 (11721691_x_at) / RFU ANKRD19P (11752326_a_at) / Fold change /veh ANKRD19P (11752326_a_at) / RFU OR2T12 /// OR2T33 /// OR2T8 (11738714_s_at) / Fold change /veh OR2T12 /// OR2T33 /// OR2T8 (11738714_s_at) / RFU VCAN (11748164_a_at) / Fold change /veh VCAN (11748164_a_at) / RFU JSRP1 (11732532_at) / Fold change /veh JSRP1 (11732532_at) / RFU KRTAP10-11 (11738290_x_at) / Fold change /veh KRTAP10-11 (11738290_x_at) / RFU MYO3A (11730013_a_at) / Fold change /veh MYO3A (11730013_a_at) / RFU EBF3 (11725865_a_at) / Fold change /veh EBF3 (11725865_a_at) / RFU CAMK2N1 (11719241_x_at) / Fold change /veh CAMK2N1 (11719241_x_at) / RFU C5orf56 (11738088_a_at) / Fold change /veh C5orf56 (11738088_a_at) / RFU OLFML3 (11715873_a_at) / Fold change /veh OLFML3 (11715873_a_at) / RFU LOC100653217 /// NTM (11731650_a_at) / Fold change /veh LOC100653217 /// NTM (11731650_a_at) / RFU MAPK11 (11762145_a_at) / Fold change /veh MAPK11 (11762145_a_at) / RFU FIZ1 (11724087_x_at) / Fold change /veh FIZ1 (11724087_x_at) / RFU OASL (11726364_x_at) / Fold change /veh OASL (11726364_x_at) / RFU SOX15 (11748057_x_at) / Fold change /veh SOX15 (11748057_x_at) / RFU CD79A (11719716_a_at) / Fold change /veh CD79A (11719716_a_at) / RFU HIST1H1D (11736915_at) / Fold change /veh HIST1H1D (11736915_at) / RFU CASKIN2 (11723855_a_at) / Fold change /veh CASKIN2 (11723855_a_at) / RFU LOC730098 (11760151_x_at) / Fold change /veh LOC730098 (11760151_x_at) / RFU OR4N2 (11742367_at) / Fold change /veh OR4N2 (11742367_at) / RFU PRRT2 (11749266_a_at) / Fold change /veh PRRT2 (11749266_a_at) / RFU SNX32 (11753110_a_at) / Fold change /veh SNX32 (11753110_a_at) / RFU CDHR5 (11726645_a_at) / Fold change /veh CDHR5 (11726645_a_at) / RFU RCAN1 (11760418_a_at) / Fold change /veh RCAN1 (11760418_a_at) / RFU FAM167A (11723789_a_at) / Fold change /veh FAM167A (11723789_a_at) / RFU FAM26E (11764081_at) / Fold change /veh FAM26E (11764081_at) / RFU ISYNA1 (11749810_s_at) / Fold change /veh ISYNA1 (11749810_s_at) / RFU ACY1 (11761880_at) / Fold change /veh ACY1 (11761880_at) / RFU 11764098_at / Fold change /veh 11764098_at / RFU SAMD14 (11745864_x_at) / Fold change /veh SAMD14 (11745864_x_at) / RFU NPB (11741838_a_at) / Fold change /veh NPB (11741838_a_at) / RFU TMPRSS6 (11731388_a_at) / Fold change /veh TMPRSS6 (11731388_a_at) / RFU KRTAP10-2 (11738614_at) / Fold change /veh KRTAP10-2 (11738614_at) / RFU ARHGAP8 /// PRR5-ARHGAP8 (11727945_x_at) / Fold change /veh ARHGAP8 /// PRR5-ARHGAP8 (11727945_x_at) / RFU KRTAP5-7 /// NADSYN1 (11734609_at) / Fold change /veh KRTAP5-7 /// NADSYN1 (11734609_at) / RFU RASL12 (11751679_a_at) / Fold change /veh RASL12 (11751679_a_at) / RFU CDKN2B (11736163_a_at) / Fold change /veh CDKN2B (11736163_a_at) / RFU PRF1 (11729649_at) / Fold change /veh PRF1 (11729649_at) / RFU, ZNF638 /// ZNF638-IT1 / Fold change vs veh, ZNF638 /// ZNF638-IT1 / RFU, PANK3 / Fold change vs veh, PANK3 / RFU, SH3YL1 / Fold change vs veh, SH3YL1 / RFU, ZEB2 / Fold change vs veh, ZEB2 / RFU, NRIP1 / Fold change vs veh, NRIP1 / RFU, PTTG1IP / Fold change vs veh, PTTG1IP / RFU, CAPN2 / Fold change vs veh, CAPN2 / RFU, MED14 / Fold change vs veh, MED14 / RFU, SNORA58 / Fold change vs veh, SNORA58 / RFU, C1orf63 / Fold change vs veh, C1orf63 / RFU, LRRFIP1 / Fold change vs veh, LRRFIP1 / RFU, NDUFAF7 / Fold change vs veh, NDUFAF7 / RFU, SLC12A2 / Fold change vs veh, SLC12A2 / RFU, IBTK / Fold change vs veh, IBTK / RFU, ESF1 / Fold change vs veh, ESF1 / Fold change vs veh, TMEM50B / RFU, TAOK1 / Fold change vs veh, TAOK1 / RFU, ACBD3 / Fold change vs veh, ACBD3 / RFU, TMA16 / Fold change vs veh, TMA16 / RFU, RWDD3 / Fold change vs veh, RWDD3 / RFU, BCAT1 / Fold change vs veh, BCAT1 / RFU, EDEM3 / Fold change vs veh, EDEM3 / RFU, TMEM33 / Fold change vs veh, TMEM33 / RFU, WDR75 / Fold change vs veh, WDR75 / RFU, AHCTF1 / Fold change vs veh, AHCTF1 / RFU, TFRC / Fold change vs veh, TFRC / RFU, ZDHHC17 / Fold change vs veh, ZDHHC17 / RFU, NOM1 / Fold change vs veh, NOM1 / RFU, ARL8B / Fold change vs veh, ARL8B / RFU, ZBTB11 / Fold change vs veh, ZBTB11 / RFU, TAMM41 / Fold change vs veh, TAMM41 / RFU, KIAA1704 /// LOC100996395 / Fold change vs veh, KIAA1704 /// LOC100996395 / RFU, ING1 / Fold change vs veh, ING1 / RFU, TRMT61B / Fold change vs veh, TRMT61B / RFU, FUBP3 / Fold change vs veh, FUBP3 / RFU, TP53 / Fold change vs veh, TP53 / RFU, TNKS2 / Fold change vs veh, TNKS2 / RFU, ZFP14 / Fold change vs veh, ZFP14 / RFU, ACTR2 / Fold change vs veh, ACTR2 / RFU, PPP3R1 / Fold change vs veh, PPP3R1 / RFU, PIK3R1 / Fold change vs veh, PIK3R1 / RFU, HNRNPA1 / Fold change vs veh, HNRNPA1 / RFU, RNF170 / Fold change vs veh, RNF170 / RFU, ZNF28 / Fold change vs veh, ZNF28 / RFU, RNGTT / Fold change vs veh, RNGTT / RFU, OGT / Fold change vs veh, OGT / RFU, BRD1 / Fold change vs veh, BRD1 / RFU, MARS / Fold change vs veh, MARS / RFU, ZNF655 / Fold change vs veh, ZNF655 / RFU, FAHD1 / Fold change vs veh, FAHD1 / RFU, BDP1 / Fold change vs veh, BDP1 / RFU, LRRCC1 / Fold change vs veh, LRRCC1 / RFU, ARID1A / Fold change vs veh, ARID1A / RFU, ZNF146 / Fold change vs veh, ZNF146 / RFU, ZNF330 / Fold change vs veh, ZNF330 / RFU, GPN3 / Fold change vs veh, GPN3 / RFU, C9orf123 / Fold change vs veh, C9orf123 / RFU, N4BP2L2 / Fold change vs veh, N4BP2L2 / RFU, ARFIP1 / Fold change vs veh, ARFIP1 / RFU, FAM179B / Fold change vs veh, FAM179B / RFU, BCL10 / Fold change vs veh, BCL10 / RFU, UHRF1BP1L / Fold change vs veh, UHRF1BP1L / RFU, BET1 / Fold change vs veh, BET1 / RFU, CNOT2 / Fold change vs veh, CNOT2 / RFU, ZNF268 / Fold change vs veh, ZNF268 / Fold change vs veh, ZNF507 / RFU, DGCR2 / Fold change vs veh, DGCR2 / RFU, WDSUB1 / Fold change vs veh, WDSUB1 / Fold change vs veh, HSP90B1 /// MIR3652 / RFU, ADSS / Fold change vs veh, ADSS / RFU, GK / Fold change vs veh, GK / RFU, ZNF148 / Fold change vs veh, ZNF148 / RFU, TAF9 / Fold change vs veh, TAF9 / RFU, SLC1A5 / Fold change vs veh, SLC1A5 / RFU, SLMO2 / Fold change vs veh, SLMO2 / RFU, ABCC4 / Fold change vs veh, ABCC4 / RFU, LOC101060439 /// RAP1B / Fold change vs veh, LOC101060439 /// RAP1B / RFU, RFX7 / Fold change vs veh, RFX7 / RFU, GTPBP10 / Fold change vs veh, GTPBP10 / RFU, CNEP1R1 / Fold change vs veh, CNEP1R1 / RFU, BIVM-ERCC5 /// ERCC5 / Fold change vs veh, BIVM-ERCC5 /// ERCC5 / RFU, ILF3 / Fold change vs veh, ILF3 / RFU 11762660_at / Fold change /veh 11762660_at / RFU VCAN (11757783_s_at) / Fold change /veh VCAN (11757783_s_at) / RFU DDX43 (11728927_at) / Fold change /veh DDX43 (11728927_at) / RFU KRT8 (11758188_x_at) / Fold change /veh KRT8 (11758188_x_at) / RFU NKD1 (11759106_at) / Fold change /veh NKD1 (11759106_at) / RFU SRD5A1 (11742802_a_at) / Fold change /veh SRD5A1 (11742802_a_at) / RFU TPSAB1 /// TPSB2 (11721975_s_at) / Fold change /veh TPSAB1 /// TPSB2 (11721975_s_at) / RFU GSTM3 (11746129_a_at) / Fold change /veh GSTM3 (11746129_a_at) / RFU IL23R (11737362_x_at) / Fold change /veh IL23R (11737362_x_at) / RFU TMEM51 (11727254_a_at) / Fold change /veh TMEM51 (11727254_a_at) / RFU PIWIL2 (11732686_x_at) / Fold change /veh PIWIL2 (11732686_x_at) / RFU ORM1 (11744905_x_at) / Fold change /veh ORM1 (11744905_x_at) / RFU CCDC152 (11743942_at) / Fold change /veh CCDC152 (11743942_at) / RFU ECM1 (11717891_a_at) / Fold change /veh ECM1 (11717891_a_at) / RFU IL23R (11748794_a_at) / Fold change /veh IL23R (11748794_a_at) / RFU TNFAIP8L3 (11732012_x_at) / Fold change /veh TNFAIP8L3 (11732012_x_at) / RFU MBOAT4 (11741988_at) / Fold change /veh MBOAT4 (11741988_at) / RFU 11764193_at / Fold change /veh 11764193_at / RFU TMEM53 (11763286_at) / Fold change /veh TMEM53 (11763286_at) / RFU MAGEB2 (11727129_at) / Fold change /veh MAGEB2 (11727129_at) / RFU TMEM200A (11744735_a_at) / Fold change /veh TMEM200A (11744735_a_at) / RFU CCDC152 (11751479_a_at) / Fold change /veh CCDC152 (11751479_a_at) / RFU FAM211A (11726209_a_at) / Fold change /veh FAM211A (11726209_a_at) / RFU RGS16 (11746705_a_at) / Fold change /veh RGS16 (11746705_a_at) / RFU VCAN (11755009_s_at) / Fold change /veh VCAN (11755009_s_at) / RFU RHOB (11743442_s_at) / Fold change /veh RHOB (11743442_s_at) / RFU RGS16 (11720943_a_at) / Fold change /veh RGS16 (11720943_a_at) / RFU RGS16 (11720944_at) / Fold change /veh RGS16 (11720944_at) / RFU, VPS4B / Fold change vs veh, VPS4B / RFU, CREB1 / Fold change vs veh, CREB1 / RFU, DNAJC13 / Fold change vs veh, DNAJC13 / RFU, GNAQ / Fold change vs veh, GNAQ / RFU, CDK5R1 / Fold change vs veh, CDK5R1 / RFU, ZRANB3 / Fold change vs veh, ZRANB3 / RFU, CUL4A / Fold change vs veh, CUL4A / RFU, CCNY / Fold change vs veh, CCNY / RFU, UFL1 / Fold change vs veh, UFL1 / RFU, COG3 / Fold change vs veh, COG3 / RFU, DIAPH2 / Fold change vs veh, DIAPH2 / RFU, SKA2 / Fold change vs veh, SKA2 / RFU, AFF3 / Fold change vs veh, AFF3 / RFU, LMF1 / Fold change vs veh, LMF1 / RFU, IPO11 / Fold change vs veh, IPO11 / RFU, DFFB / Fold change vs veh, DFFB / RFU, FOXP1 / Fold change vs veh, FOXP1 / RFU, CARD8 / Fold change vs veh, CARD8 / RFU, STRN3 / Fold change vs veh, STRN3 / RFU, ADK / Fold change vs veh, ADK / RFU, RASSF2 / Fold change vs veh, RASSF2 / RFU, WIPF1 / Fold change vs veh, WIPF1 / RFU, LARP1B / Fold change vs veh, LARP1B / RFU, RASA1 / Fold change vs veh, RASA1 / RFU, RB1 / Fold change vs veh, RB1 / RFU, PPFIA1 / Fold change vs veh, PPFIA1 / RFU, MAT2A / Fold change vs veh, MAT2A / RFU, CCT5 / Fold change vs veh, CCT5 / RFU, WDR92 / Fold change vs veh, WDR92 / RFU, CUX1 / Fold change vs veh, CUX1 / RFU, TTC7A / Fold change vs veh, TTC7A / RFU, TMEM135 / Fold change vs veh, TMEM135 / RFU, DEPTOR / Fold change vs veh, DEPTOR / RFU, CPM / Fold change vs veh, CPM / RFU, DNAJB6 / Fold change vs veh, DNAJB6 / RFU, CACNA2D3 / Fold change vs veh, CACNA2D3 / RFU, DTX4 / Fold change vs veh, DTX4 / RFU, TFCP2 / Fold change vs veh, TFCP2 / RFU, GMCL1 /// GMCL1P1 / Fold change vs veh, GMCL1 /// GMCL1P1 / RFU, AEBP2 / Fold change vs veh, AEBP2 / RFU, SNHG1 /// SNORD22 /// SNORD25 /// SNORD26 /// SNORD27 /// SNORD28 /// SNORD29 /// SNORD31 / Fold change vs veh, SNHG1 /// SNORD22 /// SNORD25 /// SNORD26 /// SNORD27 /// SNORD28 /// SNORD29 /// SNORD31 / Fold change (Aza/veh), C12orf56 (ProbeSet 11735607_a_at) / Fold change (ACY-1035/veh), C12orf56 (ProbeSet 11735607_a_at) / Fold change (Aza/veh), FGFR1OP (ProbeSet 11751329_s_at) / Fold change (ACY-1035/veh), FGFR1OP (ProbeSet 11751329_s_at) / Fold change (Aza/veh), VPS36 (ProbeSet 11739960_a_at) / Fold change (ACY-1035/veh), VPS36 (ProbeSet 11739960_a_at) / RFU SYPL1 (11715823_x_at) / Fold change /veh SYPL1 (11715823_x_at) / RFU IGFBP7 (11715501_s_at) / Fold change /veh IGFBP7 (11715501_s_at) / RFU REEP3 (11722064_at) / Fold change /veh REEP3 (11722064_at) / RFU IGLL1 (11728026_x_at) / Fold change /veh IGLL1 (11728026_x_at): dose or concentration left out as unconfirmed
# Settings: ProbeSet 11744854_x_at; LIST B
structure (smiles),measurement,value
Nc1ccc(-c2cccs2)cc1NC(=O)c1ccc2c(c1)cc(C1CC1)n2CCN1CCOCC1 [ACY-1035],"Fold change vs veh, ZNF28",0.85
